Results as given in article PMC5424463, “A strategy based on nucleotide specificity leads to a subfamily-selective and cell-active inhibitor of N ^6-methyladenosine demethylase FTO” (Chemical Science, 2014).

What was measured:
FTO [1] = biological target: T1, FTO (Homo sapiens, UniProt Q9C0B1); experiment: HPLC-based inhibition assay for FTO, m3T substrate; format: biochemical; conditions: HPLC-based demethylase assay, m3T substrate; read-out: IC50 (FTO)
T1 construct: The human full length FTO construct used in this study; made in house; host or cells: E. coli BL21 (DE3) Rosetta T1R
T1 sequence (Q9C0B1 whole entry): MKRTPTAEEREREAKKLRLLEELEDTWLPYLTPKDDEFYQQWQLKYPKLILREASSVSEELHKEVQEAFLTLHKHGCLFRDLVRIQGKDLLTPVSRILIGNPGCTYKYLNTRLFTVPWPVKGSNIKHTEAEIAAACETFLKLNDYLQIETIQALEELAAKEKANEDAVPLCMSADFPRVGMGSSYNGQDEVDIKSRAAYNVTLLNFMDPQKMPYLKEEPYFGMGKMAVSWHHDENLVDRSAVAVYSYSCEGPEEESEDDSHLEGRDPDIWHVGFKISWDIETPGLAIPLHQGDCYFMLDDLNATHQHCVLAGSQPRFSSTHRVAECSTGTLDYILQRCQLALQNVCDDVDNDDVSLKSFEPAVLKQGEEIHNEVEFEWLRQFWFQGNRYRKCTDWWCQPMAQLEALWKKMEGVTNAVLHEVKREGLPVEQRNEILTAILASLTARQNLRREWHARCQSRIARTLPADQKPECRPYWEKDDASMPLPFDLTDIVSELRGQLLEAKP
Procedure: HPLC-based inhibition assays for FTO
The assay was modified from previously reported method.[17] It is performed in triplicate for each inhibitor, in a final reaction volume of 25 µL. Reaction consisted of FTO (1 µM), 2OG (50 µM), (NH4)2Fe(SO4)2·6H2O (50 µM), L-ascorbate (2 mM), 3-methylthymidine (m3T substrate, 10 µM) in 50 mM HEPES buffer, pH 7.5, and inhibitor at various concentrations (final DMSO concentration not more than 1% v/v of assay mix). The reaction was incubated at 4°C for 1 h, before analysis on a HPLC system. The substrate (m3T) and the demethylated product (thymidine) were separated using a Zorbax C18 column (4.6 mm x 250 mm) with a […]
flow rate of 1 mL/min at room temperature.
The percentage inhibition was estimated based on the peak areas of the 3-methylthymidine substrate and the thymidine product. For IC50 determination, eight different concentrations of […]
the variation in percentage demethylation at different inhibitor concentrations, using nonlinear regression, with normalized dose-response fit on GraphPad Prism 6.0™.
HPLC-based assay for FTO was also performed using an m6A-ssRNA as substrate. The assay was modified from previously reported method.[21] All reaction conditions are as described for the inhibition of m3T demethylation above, except that a 15-mer ssRNA with the sequence 5’-CUUGUCA(m6A)CAGCAGA-3’ (Yale University, W.M. Keck Foundation Biotechnology Resource Laboratory) was used as substrate (10 µM). The reaction was analysed on a bio-inert HPLC system. The m6A-ssRNA substrate and the corresponding demethylated product were separated using a Dionex DNAPac PA200 anion-exchange

FTO [2] = biological target: T1, FTO; experiment: Differential scanning fluorimetry (DSF)-based binding assay, FTO; conditions: 100 μM compound, 2 μM protein, 50 μM MnCl2, read-out: Tm shift (FTO)
Procedure: Superdex-200 column (GE Healthcare) pre-equilibrated with 20 mM HEPES, pH 7.5, 300 mM NaCl, 10% (v/v) glycerol, 0.5 mM TCEP. […]
Differential scanning fluorimetry (DSF)-based binding assay
DSF-based binding assay was performed using a MiniOpticon™ Real-Time PCR Detection System (Bio-Rad), monitoring protein unfolding using SYPRO orange (Invitrogen) according […]
to the reported method.[16] […]
and emission respectively. Reaction mixes contained 2 μM protein, 50 μM MnCl2, 100 μM […]
Reagents were prepared in 50mM
HEPES buffer, pH 7.5 except metals, which were dissolved as 100 mM stocks in 20 mM HCl, then further diluted in MilliQ water. Compounds tested were prepared in 100% DMSO and added such that the final concentration of DMSO was not more than 1% v/v of assay […]
increased linearly by 1°C min -1. The software provided was used to perform global minimum subtraction. The inflection point, representing Tm, was calculated by fitting the Boltzmann equation to the sigmoidal curves obtained; data were processed using GraphPad Prism 6.0™.
The Tm shift caused by the addition of small molecules/ fragments was determined by subtraction of the “reference” Tm (protein incubated with metal and 1% v/v DMSO) from the Tm obtained in the presence of the compound. […]

Structure (SMILES)	IC50 (FTO [1])	ΔTm at 100 µM (FTO [2])
O=C(O)C=CC(=O)NNC(=O)c1cc(Cc2ccccc2)ccn1 [Compound 22]	86.8 µM	3 °C
O=C(O)/C=C/C(=O)NNC(=O)c1ccccn1 [Compound 23]	109 µM	2.7 °C
